Where a name gives a salt, the structure may show the parent alone.
Tested on: Aedes aegypti
Assay: Direct spray treatment (pump-sprayer), knock down and/or mortality
Assay type: in vivo
Procedure: The efficacy of a non-VOC solvent formulation of the invention was evaluated using a pump-sprayer against Culex quinquefasciatus and Aedes aegypti. The non-VOC solvent formulation of the invention comprising acetyl tributyl citrate (Formulation 1) was applied at a concentration of either 15.75 mg/ml or 31.5 mg/ml from a distance of approximately 15 cm. Controls were sprayed with water. The experiment was replicated five times and ten insects were sprayed per replicate.
Percentage knock-down and/or mortality was determined at three time points: 30 minutes following treatment; 1 hour following treatment; and 24 hours following treatment. The findings are presented below in Tables 4 and 5.
Further studies were conducted using acetyl tributyl citrate as described in Table 6.

Measured: % knock down and/or mortality of Aedes aegypti (out of 10 per replicate) after direct spray treatment

CCCCOC(=O)CC(CC(=O)OCCCC)(OC(C)=O)C(=O)OCCCC [Citroflex A-4, acetyl tributyl citrate]
100%: Many spray pushes pure Citroflex A4 (1 ml), 1 hour | Many spray pushes pure Citroflex A4 (1 ml), 24 hour mortality | One spray push Citroflex 1:1 with tap water, 1 hour | One spray push Citroflex 1:1 with tap water, 24 hour mortality | One spray push pure Citroflex A4 (1 ml), 1 hour | One spray push pure Citroflex A4 (1 ml), 24 hour mortality
